Experimental findings from US6649654B1, “Methods for identifying and using IKK inhibitors” (The Regents of the University of California, priority 1999, dated 2003) are described below.

The target in the assay is T1, IKKβ(C179A) (Homo sapiens, UniProt O14920, C179A).
T1 sequence (O14920 1-756 C179A): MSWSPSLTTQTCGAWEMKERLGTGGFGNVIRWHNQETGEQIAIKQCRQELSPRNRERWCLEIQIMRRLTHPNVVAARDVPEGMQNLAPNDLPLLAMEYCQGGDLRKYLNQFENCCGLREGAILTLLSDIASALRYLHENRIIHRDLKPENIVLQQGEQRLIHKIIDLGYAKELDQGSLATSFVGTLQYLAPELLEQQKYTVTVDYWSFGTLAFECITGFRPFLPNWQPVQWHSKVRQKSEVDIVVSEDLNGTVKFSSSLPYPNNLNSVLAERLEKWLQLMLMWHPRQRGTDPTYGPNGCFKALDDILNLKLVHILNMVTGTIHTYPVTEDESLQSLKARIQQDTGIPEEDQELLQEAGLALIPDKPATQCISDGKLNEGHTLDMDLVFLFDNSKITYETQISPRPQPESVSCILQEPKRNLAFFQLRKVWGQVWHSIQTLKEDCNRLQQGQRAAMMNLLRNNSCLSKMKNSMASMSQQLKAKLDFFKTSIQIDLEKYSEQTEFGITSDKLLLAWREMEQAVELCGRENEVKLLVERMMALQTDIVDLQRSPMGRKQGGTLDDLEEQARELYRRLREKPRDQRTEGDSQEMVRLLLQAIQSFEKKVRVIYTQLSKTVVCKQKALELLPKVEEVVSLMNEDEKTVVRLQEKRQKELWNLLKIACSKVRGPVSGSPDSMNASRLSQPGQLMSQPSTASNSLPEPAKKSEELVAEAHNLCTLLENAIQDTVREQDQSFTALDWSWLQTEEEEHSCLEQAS
In words: IKKβ(C179A) coexpressed with NIK in HeLa cells, kinase activity. Conditions: HeLa cells coexpressing NIK, treated 2 hours. The format is cell-based. On the procedure: In an experiment to determine whether this cysteine is critical for sensitivity to cyPG, cysteine was replaced with an alanine using site-directed mutagenesis. In these experiments, HeLa cells were transiently transfected with expression vectors for IKKβ(WT) or IKKβ(C179A) with or without a NIK expression vector. After 16 hours, NIK transfected cells were treated for 2 hours with 15dPGJ2. Kinase activity (KA) and expression (IB:HA) were subsequently determined. Thus, wild-type (WT) IKKβ and mutant IKKβ (i.e., IKKβ(C179A)) were coexpressed with NIK in HeLa cells and their sensitivity to 15dPGJ2 examined. While both constructs were equally responsive to NIK, resulting in similar levels of kinase activity, the IKKβ(C179A) mutant was resistant to inhibitor (See, FIG. 6C).

On to `CCCCC/C=C/C=C1/C(=O)C=C[C@@H]1C/C=C\CCCC(=O)O` [15dPGJ2, 15-deoxy-Δ^12-14-PGJ2], for which the “sensitivity of IKKβ(C179A) kinase activity to inhibitor” value is reported as “resistant”.
